From the SangsterLogP compilation

Key:
[1] = method code SF-AS, from DOI: 10.1016/0378-5173(90)90042-3
[2] = method code SF-AS, from DOI: 10.1021/j150653a049
[3] = method code SF-AS, from DOI: 10.1007/s001289900104, PMID: 8661852
[4] = method code SF-HPLC, from PMID: 3799213; conditions: pH 4.0
[5] = method code SF-RC, from Audran, M.; Chanal, J.; Berge, G.; Marignan, R. (1983). Binding-structure correlation of bovine serum albumin in a series of cresotinamides. International Journal of Pharmaceutics, 15(3)273-284.; conditions: pH 1.0
[6] = not given; remark: listed apart in the source
[7] = method code SF-AS, from DOI: 10.1002/jhet.5570150704
[8] = from Dutta, H.; Mehta, N.; SenGupta, M.; Pal, D.; Sengupta, C.; De, A. (1988). Dioxanide furoate: studies on its interaction with blood phospholipid in relation to partition coefficients of related drugs. …
[9] = method code SF-GLC, from DOI: 10.1016/0378-4274(86)90173-6, PMID: 3952768
[10] = not given; remark: listed apart in the source
[11] = method code SF-AS, from Korenman, Y.; Danilov, N. (1990). Extraction of alkyl salicylates from aqueous media. Journal of Applied Chemistry of the USSR, 63(1)125-129.
[12] = method code SF, from DOI: 10.1021/bk-1995-0606.ch004
[13] = not given; remark: listed apart in the source
[14] = method code SF-AS, from DOI: 10.1021/jm00284a014, PMID: 5544400
[15] = from Kurihara, N.; Yamakawa, K.; Fujita, T.; Nakajima, M. (1980). Studies on BHC isomers and related compounds. XXVI. Anaerobic degradation of tetra-, penta- and hexachlorocyclohexane isomers by rat liver …
[16] = method code SF-RC, from DOI: 10.1021/es60170a013
[17] = not given; remark: listed apart in the source
[18] = method code SF-AS, from DOI: 10.1016/j.bioorg.2006.09.003, PMID: 17078995; conditions: pH 7.4
[19] = not given; remark: listed apart in the source
[20] = method code SF-AS, from DOI: 10.1016/0005-2728(86)90252-5, PMID: 3015209; conditions: pH 7.2
[21] = method code SF, from DOI: 10.1016/j.bmcl.2006.04.097, PMID: 16714112
[22] = method code SF-AS, from DOI: 10.1021/bi00730a008, PMID: 4688860
[23] = method code SF-AS, from DOI: 10.1111/1523-1747.ep12263302, PMID: 6470515
[24] = not given; remark: listed apart in the source
[25] = method code SF, from DOI: 10.1021/bk-1995-0606.ch005
[26] = method code SF-C, from DOI: 10.1038/194178b0
[27] = method code SF, from DOI: 10.1248/yakushi1947.96.10_1169, PMID: 1033993; conditions: pH 0.7
[28] = method code SF-C, from DOI: 10.1021/ja00901a033
[29] = method code SF, from DOI: 10.1002/1522-2675(20001004)83:10<2836::aid-hlca2836>3.0.co;2-g; conditions: pH 5.5

Compound: CCCOC(=O)c1cc(=O)[nH]c(=O)[nH]1
- logP [1]: 1.1

Compound: OCc1cccc(O)c1
- logP [2]: 0.5

Compound: CC(C)OC(=O)c1cc(=O)[nH]c(=O)[nH]1
- logP [1]: 0.81

Compound: Oc1cc(O)nc(-c2ncncn2)n1
- logP [3]: 1.49

Compound: CCCC(CC)C(=O)O (centres undefined)
- logP: 2.23

Compound: CCOC(=O)OCn1cc(F)c(=O)[nH]c1=O
- logD [4]: -0.04

Compound: Cc1cc(Br)cc(C(=O)NC2CC2)c1O
- logD [5]: 3.8

Compound: COc1cccc(OC)c1C(=O)O
- logP [6]: 0.95

Compound: Cc1ccc(O)c(CO)c1
- logP [2]: 0.97

Compound: Cc1nnc(-c2ccccn2)o1
- logP [7]: 0.46

Compound: O=C(OCn1c(=O)[nH]cc(F)c1=O)Oc1ccccc1
- logD [4]: 1.11

Compound: CC(=O)Oc1ccc(NC(=O)C(Cl)Cl)cc1
- logP [8]: 1.9

Compound: CCCC(C)CCC(C)=O (centres undefined)
- logP [9]: 2.92

Compound: C1=C(c2ccccc2)CCN(c2ccccc2)C1
- logP [10]: 2.71

Compound: COC(=O)c1ccccc1O
- logP [11]: 2.08

Compound: COP(=O)(OC)Oc1c(Cl)cc(C)cc1Cl
- logP [12]: 2.66

Compound: C1=CCCC=CCCC=CCC1
- logP [13]: 4.12

Compound: S=c1[nH]c2ccccc2[nH]1
- logP [14]: 1.66

Compound: ClC1=CC(Cl)C(Cl)C(Cl)C1Cl (centres undefined)
- logP [15]: 3.61

Compound: Clc1cccc(Cl)c1
- logP [16]: 3.44

Compound: CC(C)c1cc(C(C)C)c(C(=O)O)c(C(C)C)c1
- logP [6]: 4.05

Compound: Nc1c(Cl)c(F)nc(OCC(=O)O)c1Cl
- logP [6]: 1.74

Compound: OCc1c(F)cccc1F
- logP [10]: 1.12

Compound: CCNc1nc(NCC)nc(SC)n1
- logP [17]: 2.63

Compound: CNC(=O)c1cc(Br)cc(C)c1O
- logD [5]: 3.51

Compound: COc1cc(CCOC(C)=O)ccc1O
- logD [18]: 1.5

Compound: CCNc1ccccc1
- logP [19]: 2.16

Compound: Cc1ccc(C)c(NN=C(C#N)C#N)c1
- logD [20]: 2.6

Compound: Ic1ccccc1C1=NCCO1
- logP [21]: 2.3

Compound: CCCOC(=O)c1ccccc1O
- logP [11]: 3.8

Compound: O=CNc1ccc(Cl)cc1
- logP [22]: 2.04

Compound: Nc1cc([N+](=O)[O-])ccc1O
- logP [23]: 1.13

Compound: Clc1cc(-c2ncncn2)c(Cl)nn1
- logP [3]: 0.84

Compound: O=C(O)C(=O)Nc1ccc(Cl)cc1
- logP [24]: 2.08

Compound: Nc1ccc(N)cc1
- logP [23]: -0.3

Compound: COP(=S)(OC)Oc1ccc([N+](=O)[O-])cc1
- logP [25]: 2.86

Compound: O=NN(c1ccccc1)c1ccccc1
- logP [16]: 3.13

Compound: CCc1cccc(OCC(=O)O)c1
- logP [26]: 2.3

Compound: CCCCOC(=O)c1ccccc1O
- logP [11]: 4.63

Compound: CCCCOC(=O)c1cc(=O)[nH]c(=O)[nH]1
- logP [1]: 1.33

Compound: CCCCNC(=O)c1cc(Br)cc(C)c1O
- logD [5]: 4.21

Compound: COC(=O)c1ccccc1CS(=O)(=O)Nc1nc(OC)cc(OC)n1
- logD ([25]; pH 5.0): 2.4

Compound: CCC(=O)OCCc1ccc(O)c(OC)c1
- logD [18]: 2.33

Compound: Cc1nonc1-c1ccccn1
- logP [7]: 2.09

Compound: CCC1(C2CCCCC2)C(=O)NC(=O)N(C)C1=O (centres undefined)
- logD [27]: 2

Compound: Cc1ccc(OCC(=O)O)cc1
- logP [28]: 1.95

Compound: Nc1ccccc1-c1ccccc1
- logD [29]: 2.64

Compound: OCCc1ccc(O)c(O)c1
- logD [18]: 0.09

Compound: COC(=O)Nc1ccccc1
- logP [25]: 1.76
